Laboratory results as given in the supplement of paper PMC10307832.

Experiments:
Assay in all cases: relative viability (nuclei count vs DMSO), 5 days (fraction); higher = more cells survive
Sulindac + Foretinib = compound: CC1=C(CC(=O)O)c2cc(F)ccc2/C1=C\c1ccc([S+](C)[O-])cc1 [Sulindac] + COc1cc2c(Oc3ccc(NC(=O)C4(C(=O)Nc5ccc(F)cc5)CC4)cc3F)ccnc2cc1OCCCN1CCOCC1 [Foretinib] (partner 0.25 µM)
Method in brief: (§1)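 For relative viability, nuclei counts in treated wells were divided by those in vehicle wells. Lung cancer cell lines had been pin-tool dosed in 1536-well plates the day after seeding and cultured for 5 days, then fixed and stained in one step (final 0.05% Triton X-100, 1% formaldehyde, 1 ug/ml Hoechst) and imaged at 4×. Doses were one drug alone or a fixed anchor-drug dose plus five library-drug doses (not always all listed) in √10 steps, and values are duplicate-plate medians.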

[1] = compound: O=c1[nH]cc(F)c(=O)[nH]1 [5-Fluorouracil] + C[C@]1(O)C[C@@H](c2nc(-c3ccc4ccc(-c5ccccc5)nc4c3)c3c(N)nccn32)C1 [Linsitinib] (partner 1 µM)
Method in brief: as §1

Sulindac + Trametinib = compound: CC1=C(CC(=O)O)c2cc(F)ccc2/C1=C\c1ccc([S+](C)[O-])cc1 [Sulindac] + CC(=O)Nc1cccc(-n2c(=O)n(C3CC3)c(=O)c3c(Nc4ccc(I)cc4F)n(C)c(=O)c(C)c32)c1 [Trametinib] (partner 0.02 µM)
Method in brief: as §1

Sulindac + OSI-027 = compound: CC1=C(CC(=O)O)c2cc(F)ccc2/C1=C\c1ccc([S+](C)[O-])cc1 [Sulindac] + COc1cccc2cc(-c3nc([C@H]4CC[C@H](C(=O)O)CC4)n4ncnc(N)c34)[nH]c12 [OSI-027] (partner 0.5 µM)
Method in brief: as §1

Cell Line	relative viability (Sulindac + Foretinib; first compound 0.08 µM)	relative viability (Sulindac + Foretinib; first compound 0.253 µM)	relative viability (Sulindac + Foretinib; first compound 0.8 µM)	relative viability (Sulindac + Foretinib; first compound 2.53 µM)	relative viability (Sulindac + Foretinib; first compound 8 µM)	relative viability ([1]; first compound 0.02 µM)	relative viability ([1]; first compound 0.2 µM)	relative viability ([1]; first compound 0.6325 µM)	relative viability ([1]; first compound 2 µM)	relative viability (Sulindac + Trametinib; first compound 0.08 µM)	relative viability (Sulindac + Trametinib; first compound 0.253 µM)	relative viability (Sulindac + Trametinib; first compound 2.53 µM)	relative viability (Sulindac + Trametinib; first compound 8 µM)	relative viability (Sulindac + OSI-027; first compound 0.08 µM)	relative viability (Sulindac + OSI-027; first compound 0.253 µM)	relative viability (Sulindac + OSI-027; first compound 0.8 µM)	relative viability (Sulindac + OSI-027; first compound 2.53 µM)	relative viability (Sulindac + OSI-027; first compound 8 µM)	relative viability (Sulindac + Trametinib; first compound 0.8 µM)
HCC-366	0.838	0.964	0.999	0.994	0.998	0.673	0.82	0.254	0.0796	0.359	0.384	0.357	0.396	1.33	1.11	0.947	0.836	0.964	
HCC-827	1.03	1.05	1.1	1.01	1.09	0.909	0.95	0.57	0.405	0.525	0.571	0.489	0.506	0.913	0.777	0.573	0.798	0.761	0.526
HOP-62	1.18	1.1		1.23	1.25	1.11	1.03	0.86	0.765	0.411	0.404	0.411	0.388	0.825	0.976		0.946	0.91	0.34
IA-LM	1.23	1.19		1.2	1.3	0.597	0.485	0.175	0.213										
LC-2-ad	0.855	1.01	0.877	0.872	1.02	0.868	0.798	0.463	0.299	1.02	1.01	0.928	0.915	0.763	0.986	0.686	0.701	0.776	0.769
LCLC-97TM1	0.939	0.992	0.804	0.803	0.962	0.175	0.193	0.153	0.144	0.25	0.228	0.171	0.214	0.629	0.626	0.294	0.426	0.589	0.213
LCLC-103H	0.817	0.822	0.681	0.734	0.916	1.16	1.04	0.955	0.645	0.715	0.722	0.67	0.694	0.558	0.499	0.388	0.496	0.555	0.692
LK-2	1.73	1.45			1.21	0.767	0.5	0.584	0.334	0.854	0.746	0.617	0.944	0.186	0.209	0.201	0.17	0.21	0.705
LOU-NH91	0.859	0.964	0.876	0.935	1.11	0.921	0.889	0.646	0.415	0.771	0.826	0.785	0.836	0.681	0.714	0.808	0.705	0.73	0.687
